Measurements reported in patent US20040229816A1, “Anti-angiogenic and anti-tumoral properties of beta and gamma secretase inhibitors” (priority 2003, published 2004).
“Also recorded” adds a separate entry of the source. Like-named read-outs stand apart in the source and are kept apart here. Peptide text beside a SMILES is read from it. * marks the point of attachment. Cbz = O=C(OCc1ccccc1)*

Assays:
[1] = tested on: APP; experiment: α-sAPP secretion by human brain endothelial cells (immunoprecipitation, immunoblotting); assay type: cell-based; conditions: 5 μM, 24 hours
Protocol: (§1) Confluent human brain endothelial cells (grown on 75 cm2 flasks with EBM 4% FBS medium) were treated for 24 hours with 5 μM of Z-VVL-CHO, 5 μM of L-685,458, 5 μM of OM99-2, 5 AM of DAPT or went untreated (control). Experiments were done in quadriplicate for each treatment condition. 6E10 (Signet), a mAb that recognizes residues 1-17 of human Aβ (Van Nostrand et al., Nature, 341, 546-549, 1989) was used to immunoprecipitate soluble APP generated following cleavage by α-secretase from cell culture medium. Immunoprecipitated material was resolved on a 4-20% gradient SDS-PAGE, transferred to PVDF membranes and immunodetected with mAb 22C11 (Roche Diagnostics) that recognizes the amino acids 66-81 of the N-terminal portion of APP (Hibich, C., J. Biol. Chem., 268, 26571-26577, 1993). Human brain endothelial cells were lysed on ice using MPERTM reagent (Pierce) supplemented with 1 mM PMSF and 1 mM of sodium-orthovanadate. Samples were sonicated and centrifuged at 10,000 g for 30 min at 4° C. The protein content of the lysates was determined using the BCA Protein assay kit (Pierce). Total lysates ([…] of protein/sample) were separated on a 4-20% gradient SDS-PAGE and transferred to PVDF membranes and immunoprobed with mAb 22C11 in order to detect full length APP and also immunoprobed with an Anti-APP-CT20 (Calbiochem) antibody which recognizes the amino acid residues 751-770 of the carboxyl terminal region of APP (Pinnix et al. 2001; J. Biol. Chem., 276, 481).

[2] = tested on: Human middle cerebral artery endothelial cells; experiment: capillary morphogenesis assay; assay type: cell-based
Protocol: Two hundred μl of Matrigel were placed into each well of a 24-well culture plate at 4° C. and allowed to polymerize by incubation at 37° C. Human middle cerebral artery endothelial cells (5×104) were seeded on the Matrigel in 1 ml of EBM containing 4% fetal calf serum. The cells were incubated at 37° C. for 20 hours in a humidified 5% CO2 atmosphere in the presence or absence of various doses of γ-secretase and β-secretase inhibitors as indicated in the figure legends. The experiments were performed in quadruplicate for each treatment condition. For each culture, 2 randomly chosen fields were photographed using a 4×objective. An experimenter unaware of the different treatments measured the total length of tube structures in each photograph using the Image Pro Plus software (Media Cybernetic, Inc., Md.). Capillary network lengths for the different treatment conditions were expressed as the percentage of capillary network lengths obtained in the control condition.

[3] = target: T1, β-secretase (Cricetulus griseus, UniProt G3IAK4); conditions: Chinese hamster ovary cells, wild-type APP751, cited from earlier work
T1 construct: endogenous in cells; host or cells: Chinese hamster ovary cells stably transfected with wild-type APP751
T1 sequence (G3IAK4 22-501): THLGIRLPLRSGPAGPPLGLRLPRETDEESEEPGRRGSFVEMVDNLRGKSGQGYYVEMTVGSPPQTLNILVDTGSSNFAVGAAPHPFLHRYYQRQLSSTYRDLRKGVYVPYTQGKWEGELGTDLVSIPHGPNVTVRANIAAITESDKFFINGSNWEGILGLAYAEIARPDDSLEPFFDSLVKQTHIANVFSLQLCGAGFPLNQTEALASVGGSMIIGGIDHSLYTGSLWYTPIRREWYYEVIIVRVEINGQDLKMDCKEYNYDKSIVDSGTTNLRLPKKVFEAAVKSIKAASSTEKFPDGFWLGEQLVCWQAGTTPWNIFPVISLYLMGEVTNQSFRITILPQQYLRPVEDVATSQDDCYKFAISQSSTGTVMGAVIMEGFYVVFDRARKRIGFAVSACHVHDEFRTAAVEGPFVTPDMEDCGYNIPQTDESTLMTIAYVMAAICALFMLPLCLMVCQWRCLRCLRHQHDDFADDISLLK

[4] = tested on: human lung adenocarcinoma (A-549) xenografts; experiment: human lung adenocarcinoma A-549 xenografts in nude mice; assay type: in vivo; conditions: Z-VLL-CHO 5 mg/Kg; for vascularization (vascular index) of A-549 tumors versus vehicle: DAPT 10 mg/Kg intraperitoneally, CD31/PECAM-1 immunostaining; for growth (tumor volume) of A-549 xenografts versus vehicle: intraperitoneally everyday for 12 days, DAPT 10 mg/Kg
Protocol: FIG. 9a: Anti-tumoral effect of the γ-secretase inhibitor DAPT and of the β-secretase inhibitor Z-VLL-CHO on human lung adenocarcinoma (A-549) xenografts growth rates. A-549 cells (8.5×10^6) were injected subcutaneously into both flanks of 8-10 weeks-old nude mice. Mice were injected intraperitoneally with either the vehicle, 5 mg/Kg of body weight of the β-secretase inhibitor Z-VLL-CHO or 10 mg/Kg of body weight of the γ-secretase inhibitor DAPT, starting when tumors had reached a mean tumor volume of approximately 200 mm^3 (day 21 post implantation). Injections were given everyday for 12 days. […] FIG. 9b: Representative pictures of sections of lung adenocarcinoma tumors immunostained with CD31 antibodies. FIG. 9c: Histogram depicting the quantification of the vascularization of lung adenocarcinoma tumors.
FIG. 10: Anti-tumoral effect of the γ-secretase inhibitor JLK-6 on human lung adenocarcinoma (A-549) xenografts growth rates. A-549 cells (8.5×10^6) were injected subcutaneously into both flanks of 8-10 weeks-old nude mice. Mice were injected intraperitoneally everyday from Day 16 (when the tumors reached a volume of approximately 150 mm^3) with either the vehicle or 5 mg/Kg of body weight of the γ-secretase inhibitor JLK-6.
The human glioblastoma U-87 MG and human lung adenocarcinoma A-549 cell lines were obtained from American Tissue Culture Type Collection (Manassas, Va.) and were grown in DMEM containing 1×penicilline-streptomycine-fungizone and 10% fetal bovine serum at 37° C. in a humidified atmosphere of 5% CO2. Tumor cells (6×106) in 100 μl of PBS were inoculated subcutaneously into both flanks of 8-10-week-old female nude mice (Harland). Tumor volume (in mm^3) was determined using the formula (length×width^2)/2, where length was the longest axis and width the measurement at right angles to the length (Clarke et al. 2000). When the tumor volumes reached approximately 150 mm^3, animals were treated intraperitoneally everyday with 100 μl of 50% DMSO/H2O (vehicle group), 5 mg/Kg of body weight of Z-VLL-CHO (β-secretase inhibitor), 5 mg/Kg of JLK-6 (γ-secretase inhibitor) or with 10 mg/Kg of body weight of DAPT. Data were expressed as mean tumor volume±S.E for each treatment group.
At the completion of the study, animals were humanely euthanized and tumors were harvested and fixed in paraformaldehyde 4% overnight at 4° C. After paraffin embedding in an automated tissue processing Sakura Tissue-Tek (E150) (Torrence, Calif.), samples were cut into 5 μm sections, deparafinized, and rehydrated through a graded series of alcohol. Sections were treated with 0.02 mg/ml Proteinase K (Gentra Systems, MN) for 15 minutes at 37° C. to allow for proper antigen retrieval, washed several times in PBS and incubated for 15 minutes in a 0.3% solution of hydrogen peroxide. Sections were blocked and then immunostained with a 1:40 dilution of a PECAM-1 antibody (BD-Pharmingen, CA) overnight at 4° C. in a humidification chamber. Vector ABC Kits (Vector Laboratories Inc, CA) where used following the manufacturer's instruction for the immunostaining. Quantification of tumor vascularization was performed using the stereological dissector method. Briefly, forty consecutive sections were taken from a randomly chosen starting point in each tumor. Five sections for each tumor were selected for stereology by taking one section every eight sections. A dissector counting frame was used with inclusion and exclusion lines throughout the reference area. Vessel count was performed at ×400 magnification with the use of an Olympus microscope connected to a digital video camera. Microvessels were counted in the dissector frame by an experimenter unaware of the different treatment conditions. For each tumor an average vessel count per area of dissector frame was determined. A vascular index was calculated by expressing the vessel count as a percentage of the vessel count in the vehicle treatment condition.

[5] = tested on: APP; experiment: carboxyl-terminal APP fragments in human brain endothelial cell lysates (immunoblotting); assay type: cell-based; conditions: 5 μM, 24 hours
Protocol: as §1

| Compound | secretion of α-sAPP [1] | secretion of α-sAPP ([1]; listed as Z-VVL-CHO) | formation of capillary structures, overall [2] | IC50 ([3]; read-out: formation of Aβ42, IC50) [µM] | IC50 ([3]; read-out: formation of Aβtotal, IC50) [µM] | vascularization (vascular index) of A-549 tumors versus vehicle [4] | growth (tumor volume) of A-549 xenografts versus vehicle [4] | accumulation of carboxyl-terminal APP fragments (APP CTF) [5] |
| --- | --- | --- | --- | --- | --- | --- | --- | --- |
| CC(C)C[C@@H](C=O)NC(=O)[C@H](CC(C)C)NC(=O)[C@@H](NC(=O)OCc1ccccc1)C(C)C [Z-VLL-CHO, N-benzyloxycarbony-val-leu-leucinal] (Cbz-Val-Leu-Leu-aldehyde) | stimulated | significantly inceases | profoundly anti-angiogenic | 2.5 | 0.7 | appeared to be decreased; also recorded: significantly reduce the vascularization | potently suppressed the growth; also recorded: significantly inhibit the growth |  |
| C[C@H](NC(=O)Cc1cc(F)cc(F)c1)C(=O)N[C@H](C(=O)OC(C)(C)C)c1ccccc1 [DAPT, N-[N-(3,5-difluorophenacetyl-L-alanyl)]-S-phenylglycine t-butyl ester] |  |  |  |  |  | appeared to be decreased; also recorded: significantly reduce the vascularization | potently suppressed the growth; also recorded: significantly inhibit the growth | stimulates; also recorded: promoted the accumulation |
